One molecule from paper PMC9046208, “Foldamers reveal and validate therapeutic targets associated with toxic α-synuclein self-assembly” (Nature Communications, 2022) can be followed below.

Assay [1] concerns the target T1, αS aggregation in the presence of LUVs (DOPS) (Homo sapiens, UniProt P37840).
T1 construct: made in house; host or cells: Escherichia coli BL21(DE3), periplasm
Kind of assay: Lipid (LUVs, DOPS) catalyzed αS aggregation, ThT. The class given is biochemical. The conditions noted are these: equimolar ratio. The method, then:
The aggregation kinetics of αS was monitored using ThT fluorescence assay (λex = 450 nm and λem = 485 nm). To study the aggregation kinetics of αS, the ThT dye at a final concentration of 50 μM was added to 100 μM αS solution in the aggregation buffer (1 x PBS buffer) with and without various concentrations of SK-129 in a Costar black 96–well plate (Corning Inc., Kennebunk, ME). The small molecules were dissolved in dimethyl sulfoxide (DMSO; final DMSO concentration = 0.5%, v/v). The final volume in each well was 140 μL. The plate was incubated at 37 °C with 16 min shaking (434 rpm) and 44 min without shaking in an Infinite M200PRO plate reader (Tecan, Männedorf, Switzerland) and fluorescence was recorded after every hour. We used two methods to quantify the effect of molecules on the aggregation of αS; either we have reported the t50 (time required to reach 50% fluorescence of ThT), which was extracted by fitting the ThT curve as a sigmoidal fit or the absolute ThT fluorescence intensity was reported. […] In the second method, we determined the final ThT fluorescence intensity for the aggregation of αS/Aβ42(with or without ligands) as an average of three separate experiments. […]
lipid-free and lipid-catalyzed aggregation of αS was monitored after 7 days. […]
equimolar ratio after four days. The data were expressed as mean and the error bars report the […]

The target of a further assay is T2, αS (Homo sapiens, UniProt P37840).
T2 construct: made in house; host or cells: Escherichia coli BL21(DE3), periplasm
As to the kind of experiment: FP displacement titration of αS-SK-129F complex with SK-129. The class given is binding. As to conditions: displacement of SK-129F from αS-SK-129F complex by SK-129, n = 3. How it is done: All Fluorescence Polarization (FP) experiments were conducted on a Varian Cary Eclipse fluorometer (Agilent, Santa Clara, CA) equipped with a polarizer. The stock solutions of αS, 1 mM or 100 μM in 1x PBS buffer, were serially added into a solution of 10 μM SK-129F (300 μL in 1x PBS buffer) while stirring in a quartz cuvette (Fireflysci, Staten Island, NY). All FP measurements were conducted in triplicates in 20 mM Tris, 100 mM NaCl, pH 7.2 at 20 °C. The excitation and emissions wavelengths were set at 490 nm and 520 nm, respectively. Each titration was equilibrated for five min before measurements were taken for the next addition of αS solution. The addition of αS solution was continuous until no more change in the FP signal was observed. Similar conditions were used for the titration of various αS mutants and Aβ42 peptide against SK-129F. […] The polarization of each point was calculated using Eq. 1:1 FP=I∥−I⊥/I∥+I⊥ Where I∥ is fluorescence intensity parallel to the excitation plane and I⊥ is fluorescence intensity perpendicular to the excitation plane. […]
affinity of SK-129 against αS. The fluorescence polarization titrations between SK129 and the preformed saturated complex of SK129 F-αS were conducted three times and each point in titrations was the average of three data points. […]

On to `COC(=O)c1cc(OCC(=O)O)c2cccc(NC(=O)c3cc(OC(C)C)c4cccc(NC(=O)c5cc(OCC(=O)O)c6cccc(NC(=O)c7cc(OC(C)C)c8cccc([N+](=O)[O-])c8n7)c6n5)c4n3)c2n1` [SK-129], for which the “effect on lipid catalyzed aggregation of αS” value in assay [1] is “wholly inhibited”. Moreover, on αS, the Kd (usually the equilibrium constant for the complex coming apart) is 720 ± 60 nM.
